# Where two headings read alike, the source gives them in different places.
# How the values were obtained:
# NDRG1 gene expression = test: In vivo NDRG1 gene expression in Swiss Webster mice (quantitative PCR); settings: Mus musculus, iv, 4 h, read-out: fold change in NDRG1 mRNA level
# Description: (§1) The effects of various compounds of the present invention on the expression of genes associated with tumor growth and progression (e.g., expression of genes associated with anti-proliferative effects) were examined in vivo as follows. In these studies, male Swiss Webster mice (25 g) were administered a single intravenous (i.v.) dose of various compounds (60 mg/kg) of the present invention via the tail vein. Four hours after administration of compound, the kidneys and liver were removed and preserved in RNAlater (Ambion). RNA isolation and cDNA synthesis was carried out as follows. Murine kidney tissue was added to TRIzol (Invitrogen) and homogenized using a 5-mm stainless steel bead for 4 minutes at 25 Hz in a Mixer Mill 300 (Qiagen). Homogenates were extracted with chloroform according to the manufacturer's instructions and aqueous supernatants were isolated. The aqueous supernatants were combined with equal volumes of 70% ethanol and then loaded onto RNeasy Mini spin columns (Qiagen). RNA was isolated according to the manufacturer's instructions.
# (§2) Synthesis of cDNA from the isolated total RNA was carried out using Omniscript reverse transcriptase (Qiagen) and random primers according to the manufacturer's instructions. Measurement of gene expression levels in compound-treated animals and in vehicle-treated control animals was performed by quantitative PCR using TaqMan Universal PCR Master Mix (Applied Biosystems) and TaqMan Assay-on-Demand assays (Applied Biosystems) in a Prism 7000 system instrument (Applied Biosystems), according to manufacturer's instructions. The assays used were as follows: 18S ribosomal RNA, Hs99999901_s1; BNIP3, Mm00833810_g1; BNIP3L, Mm00786306_s1; NDRG1, Mm00440447_m1. Each PCR amplification reaction included a standard curve and a water blank. Data for gene expression levels for BNIP3, BNIP3L, and NDRG1 were normalized to that of 18S ribosomal RNA within each sample. Data is presented as fold change in specific mRNA levels relative to that of non-treated control animals.
# human A549 lung tumors = test: Subcutaneously implanted human A549 lung tumor mouse xenograft (Example 2); type: in vivo
# BNIP3 gene expression [1] = test: BNIP3 gene expression in Kelly neuroblastoma cells; type: cell-based; settings: Kelly, read-out: fold-increase in BNIP3 mRNA expression
# Description: (§3) To identify compounds useful in the methods of the present invention, the following studies were performed. The effect of compounds of the present invention on expression of various genes associated with anti-tumor activity (e.g., genes having anti-proliferative activity, genes having pro-apoptotic activity, genes having anti-tumor activity, etc.). In these experiments, the effect of compounds on BNIP3, BNIP3L, NDRG1, CDKN1C, and REDD1/RTP801 gene expression in various types of cultured tumor cells line was examined, including Hep3B cells (human hepatocellular carcinoma), Kelly neuroblastoma cells, and MCF7 cells (human breast cancer)
# The effects of various compounds of the present invention on the expression of genes associated with tumor growth and progression were examined in Kelly neuroblastoma cells as follows. Kelly neuroblastoma cells were grown in RPMI media. For each experiment, Kelly neuroblastoma cells were added to 96-well tissue culture plates (approximately 40,000 cells per well) such that the plated cells reached confluence the following day. On the following day, the cells were washed and the media replaced with RPMI containing 0.5% FBS. Various compounds of the present invention were added to the cultured cells to a final concentration of 20 μM, and the cells cultured for an additional 20-24 hours. DMSO (0.5%) was added to control cell cultures.
# RNA was isolated from the Kelly neuroblastoma cells using a commercial kit and used for the preparation of cDNA. BNIP3, CDKN1C, and 18S RNA levels were measured using commercial kits (18S, Applied Biosystems cat#4319413E); BNIP3, Applied Biosystems cat#HS00969293 MH). RNA levels for BNIP3 and CDKN1C were normalized to that of 18S RNA and is presented as fold-change compared to that observed in DMSO control cultures. Kelly cell NDRG1 and BNIP3L mRNA levels were measured by Affymetrix microarray in a separate study. Cells were harvested after 6 hours incubation with 20 μM test compound or DMSO (0.5%) as control. RNA was isolated and labeled probes were prepared and hybridized to U133 Plus 2.0 Affymetrix microarrays. Changes in gene expression levels are presented as fold change compared to that of control (0.5% DMSO-treated) cultures.
# BNIP3 gene expression [2] = test: In vivo BNIP3 gene expression in Swiss Webster mice (quantitative PCR); settings: Mus musculus, iv, 4 h, single 60 mg/kg i.v. dose, four hours after administration, normalized to 18S
# Description: as §1, §2
# CDKN1C gene expression = CDKN1C gene expression in MCF7 cells; type: cell-based; settings: Homo sapiens, MCF7, read-out: fold-increase in CDKN1C mRNA expression
# Description: as §3
# The effects of various compounds of the present invention on the expression of genes associated with tumor growth and progression were examined in MCF7 breast cancer cells as follows. In some experiments, MCF7 (ATCC) cells were plated in 96-well tissue culture dishes (approximately 20,000 cells per well) and cultured in DMEM media supplemented with 10% serum. The following day, the cells were washed and the media was replaced with DMEM containing 0.5% FBS. Various compounds of the present invention were added to the cultured cells to a final concentration of 20 μM, and the cells cultured for an additional 20-24 hours. DMSO (0.5%) was added to control cell cultures. RNA was isolated as described above. Changes in gene expression levels are presented as fold change compared to that of control (0.5% DMSO-treated) cultures.
# [3] = read-out: fold change in BNIP3 mRNA level, kidney
# [4] = read-out: fold change in BNIP3 mRNA level, liver
SMILES,fold induction at 60 mg/kg (NDRG1 gene expression),"A549 mean tumor volume (human A549 lung tumors; week 5, 20 mg/kg PO)","A549 mean tumor volume (human A549 lung tumors; week 6, 20 mg/kg PO)","A549 mean tumor volume (human A549 lung tumors; week 7, 20 mg/kg PO)","A549 mean tumor volume (human A549 lung tumors; week 8, 20 mg/kg PO)","A549 mean tumor volume (human A549 lung tumors; week 9, 20 mg/kg PO)",fold induction at 20 µM (BNIP3 gene expression [1]),fold induction at 60 mg/kg (BNIP3 gene expression [2]; [3]),fold induction at 60 mg/kg (BNIP3 gene expression [2]; [4]),fold induction at 20 µM (CDKN1C gene expression),further results
"Cc1nc(C(=O)NCC(=O)O)c(O)c2ccc(Oc3ccccc3)cc12 [Compound D, [(4-Hydroxy-1-methyl-7-phenoxy-isoquinoline-3-carbonyl)-amino]-acetic acid]",3.6,272 mm^3,304 mm^3,373 mm^3,411 mm^3,466 mm^3,21.9,5.8,1.5,,"tumor weight at necropsy, Mean (human A549 lung tumors; 6 mg/kg PO): 0.51 g; A549 mean tumor volume (human A549 lung tumors; week 0, 6 mg/kg PO): 109 mm^3; A549 mean tumor volume (human A549 lung tumors; week 1, 6 mg/kg PO): 137 mm^3; A549 mean tumor volume (human A549 lung tumors; week 2, 6 mg/kg PO): 178 mm^3; A549 mean tumor volume (human A549 lung tumors; week 3, 6 mg/kg PO): 209 mm^3; A549 mean tumor volume (human A549 lung tumors; week 4, 6 mg/kg PO): 263 mm^3; A549 mean tumor volume (human A549 lung tumors; week 5, 6 mg/kg PO): 292 mm^3; A549 mean tumor volume (human A549 lung tumors; week 6, 6 mg/kg PO): 339 mm^3; A549 mean tumor volume (human A549 lung tumors; week 7, 6 mg/kg PO): 375 mm^3; A549 mean tumor volume (human A549 lung tumors; week 8, 6 mg/kg PO): 431 mm^3; A549 mean tumor volume (human A549 lung tumors; week 9, 6 mg/kg PO): 476 mm^3"
"COc1ccc(Oc2ccc3c(O)c(C(=O)NCC(=O)O)ncc3c2)cc1 [Compound C, {[4-Hydroxy-7-(4-methoxy-phenoxy)-isoquinoline-3-carbonyl]-amino}-acetic acid]",1,246 mm^3,304 mm^3,341 mm^3,402 mm^3,429 mm^3,2.6,1.5,3.5,0.6,
"O=C(O)CNC(=O)c1nc(Cl)c2ccccc2c1O [Compound A, [(1-Chloro-4-hydroxy-isoquinoline-3-carbonyl)-amino]-acetic acid]",,375 mm^3,428 mm^3,523 mm^3,547 mm^3,615 mm^3,,,,,"tumor weight at necropsy, Mean (human A549 lung tumors; 60 mg/kg PO): 0.81 g; A549 mean tumor volume (human A549 lung tumors; week 0, 60 mg/kg PO): 105 mm^3; A549 mean tumor volume (human A549 lung tumors; week 1, 60 mg/kg PO): 133 mm^3; A549 mean tumor volume (human A549 lung tumors; week 2, 60 mg/kg PO): 175 mm^3; A549 mean tumor volume (human A549 lung tumors; week 3, 60 mg/kg PO): 234 mm^3; A549 mean tumor volume (human A549 lung tumors; week 4, 60 mg/kg PO): 324 mm^3; A549 mean tumor volume (human A549 lung tumors; week 5, 60 mg/kg PO): 348 mm^3; A549 mean tumor volume (human A549 lung tumors; week 6, 60 mg/kg PO): 425 mm^3; A549 mean tumor volume (human A549 lung tumors; week 7, 60 mg/kg PO): 514 mm^3; A549 mean tumor volume (human A549 lung tumors; week 8, 60 mg/kg PO): 538 mm^3; A549 mean tumor volume (human A549 lung tumors; week 9, 60 mg/kg PO): 597 mm^3"
"C[C@H](NC(=O)c1ncc2cc(Oc3ccccc3)ccc2c1O)C(=O)O [Compound B, (S)-2-[(4-Hydroxy-7-phenoxy-isoquinoline-3-carbonyl)-amino]-propionic acid]",0.9,,,,,,17.2,2.1,,0.5,
"O=C(O)CNC(=O)c1ncc2cc(Oc3ccc(F)cc3)ccc2c1O [Compound E, {[7-(4-fluoro-phenoxy)-4-hydroxy-isoquinoline-3-carbonyl]-amino}-acetic acid]",1.8,,,,,,31.8,2.1,1.8,0.4,
